Results taken from publication PMC9688530, “Development of Ic-ELISA and Colloidal Gold Lateral Flow Immunoassay for the Determination of Cypermethrin in Agricultural Samples” (Biosensors, 2022).

How the values were obtained:
anti-CYP mAb = assay: colloidal gold LFIA strip; assay type: binding, mouse; conditions: for CR of LFIA: CR = vLOD of CYP/vLOD of analogue × 100%; for visual limit of detection (vLOD): optimal buffer
Procedure: Colloidal gold particles were synthesized with trisodium citrate as a reducing agent according to our previous work. For the preparation of colloidal gold mAb, 6.65 μg/mL anti-CYP mAbs were added to the colloidal gold solution adjusted to pH 8.2 using 0.2 mol/L K2CO3 with shaking at room temperature for 1 h. BSA (1%) was used to block free colloidal gold particles. After 1 h, the mixture was centrifuged at 12,000 revolutions per minute (RPM) for 15 min to remove free anti-CYP mAbs. The centrifuged deposits were resuspended using one-tenth of the original volume of sodium borate solution (0.01 mol/L) containing 2% BSA and 3% sucrose and preserved at 4 °C.
As depicted in Figure 1A, the LFIA strip was assembled into four components. The center section of a PVC plate was affixed to an NC membrane. The sample pad and absorption pad were stuck on both ends of the PVC plate, and both overlapped with the NC membrane by 1 mm. A total of 2 mg/mL of hapten 5-BSA and 0.5 mg/mL of GAMA were sprayed onto the NC membrane as the test line and control line, respectively, with 5 mm intervals by an automatic dispenser. After drying at 37 °C for 12 h, the fabricated cards were cut into 4 mm wide LFIA strips.
One hundred microliters of the CYP standard solution and 4 μL of the colloidal gold mAb solution were added into a micropore and mixed. After 5 min, an LFIA strip was inserted into the mixture solution. During the mixed solution migration from the sample pad to the absorbent pad, colloidal gold mAb was captured by the T and C lines, resulting in the appearance of color bands within 10 min. When the T line disappeared or the color intensity of the T line was lower than that of the C line, the result was positive (Figure 1B,C). When the color intensity of the T line was not less than that of the C line, the result was negative (Figure 1D).
The sensitivity of the LFIA strip was evaluated by a series of CYP standard solutions (0.7, 0.6, 0.5, 0.4, 0.3, 0.2, 0.1, 0 μg/mL). For qualitative analysis, the sensitivity of the LFIA strip was appraised by the visual LOD (vLOD) and the cut-off value. The vLOD is the lowest concentration of CYP at which the lighter color of the T line is observed compared to the C line. The cut-off value is the minimum CYP concentration at which no color band appears on the T line.
The CRs of the LFIA were calculated with the following equation:CR (%) = (vLOD of CYP/vLOD of analogues) × 100%.

anti-CYP mAb 2G7H9 = assay: ic-ELISA based on mAb 2G7H9; assay type: binding, mouse; conditions: CR = IC50 of CYP/IC50 of analogue × 100%
Procedure: The ic-ELISA procedure was executed according to previous studies. Each well of the ELISA plate was coated with 100 μL of coating antigen diluted with carbonate buffer (0.05 mol/L, pH 9.6) at 4 °C overnight. After washing three times with phosphate-buffered saline (PBS, 0.01 mol/L, pH 7.4) containing 1‰ Tween-20, the wells were blocked with 200 μL of 5% skim milk powder in PBS at 37 °C for two hours. After the same washing procedure, 50 μL of CYP standard solution and 50 μL of mAb were pipetted into each well and incubated at 37 °C for one hour. After washing five times, 100 μL per well of 0.5‰ horseradish peroxidase-labeled goat anti-mouse IgG antibody in PBS was added and incubated at 37 °C for one hour. After the wells were washed five times, 100 μL per well of fresh substrate solution (0.1 mg/mL 3,3′,5,5′-tetramethylbenzidine and 0.024‰ H2O2 in 0.1 M citrate acid buffer) was added to react at 37 °C for 15 min. Then, 50 μL per well of 0.2 mol/L H2SO4 was used to stop the reaction, and the absorbances were read at 450 nm with a microplate reader.
Under the optimal conditions, a standard curve was constructed using a series of concentrations of standard solutions (50, 25, 12.5, 6.25, 3.13, 1.56, 0.78, 0.39 and 0.20 ng/mL) to assess the sensitivity of ic-ELISA. The IC50 and linear range (IC10–IC90) were calculated by a logistic equation established with Origin Pro 8.0.
The CRs of the ic-ELISA were calculated with the following equation:CR (%) = (IC50 of CYP/IC50 of analogues) × 100%.

Row | SMILES | CR of LFIA (anti-CYP mAb) | visual limit of detection (vLOD) (anti-CYP mAb) | Cross-reactivity rate (%) of ic-ELISA (anti-CYP mAb 2G7H9)
1 | CC1(C)C(C=C(Cl)Cl)C1C(=O)OC(C#N)c1ccc(F)c(Oc2ccccc2)c1 (stereo not drawn) [cyfluthrin] | 30% | 1 µg/mL | 31.09%
2 | CC1(C)C(/C=C(\Cl)C(F)(F)F)C1C(=O)OC(C#N)c1cccc(Oc2ccccc2)c1 (stereo not drawn) [cyhalothrin] | 3% | 10 µg/mL | 16.15%
